Experimental data reported in patent US7122294B2, “Photoacid generators with perfluorinated multifunctional anions” (3M Innovative Properties Company, priority 2003, dated 2006).
“And” between values parts separate entries of the source, which are not always exact repeats. Equal entries are not always repeated.

Assays:
[1] = Volatility by vacuum distillation from 100% H2SO4; assay type: physicochemical
Method: This example describes an unsuccessful attempt to vacuum distill the difunctional perfluoroorganic disulfonic acid, HO3S(CF2)4SO3H, illustrating the very low volatility of this diacid compared to monofunctional perfluoroalkanesulfonic acids of even higher molecular weight, like C8F17SO3H. The dipotassium salt, KO3S(CF2)4SO3K (40.0 g) and 100% H2SO4 (241 g) were charged to a vacuum distillation apparatus comprising a 250 mL, three-necked flask equipped with a heating mantle, magnetic stirring bar, an insulated short path distillation head and a 100 mL receiver flask. The pot temperature and head temperature were continuously monitored with J-type thermocouple probes. […] The pressure was reduced to 3.6 Torr and the pot temperature raised to 178° C., but still there was no boiling or distillation. The pressure was reduced further and additional heat was applied to the pot to force distillation. Distillate eventually started to collect at a pot temperature of 196° C. and a pressure of 1.75 Torr. A total of 73.3 g of distillate was collected between 184–186° C. (head temperature) before the distillation was terminated. Since this represents 222% of the theoretical HO3S(CF2)4SO3H yield, it was surmised that the distillate was probably mostly sulfuric acid. The presence of significant H2SO4 in the distillate was confirmed by precipitation of BaSO4 upon treatment of an aqueous solution of the distillate with BaCl2.
The remaining pot retains were diluted in about 700 mL of water and treated with 350 mL of tributylamine with stirring. A white solid precipitate presumed to be Bu3NH+−O3S(CF2)4SO3^−Bu3NH^+ formed which was isolated by suction filtration washed with three portions of water and air-dried by suction to yield 44.07 g (66% of theory). […] Thus, even though the molecular weight of this monofunctional acid is 38% greater than that of HO3S(CF2)4SO3H, it is much more volatile and distills at much lower temperature than the difunctional acid. […]

[2] = Photo-DSC/DSC cationic curing activity of PAGs in Epon 828; design: PDSC Peak Max / PDSC Induction Time: unit not given here
Method: (§1) Photo-DSC/DSC: Standard (hermetic) liquid sample pans were used. Sample size was kept in the 6 to 8 mg range. Samples were tested using a Dupont Photo-DSC/DSC instrument (available from DuPont, Wilmington, Del.). The light source was a 200 W Hg lamp that delivered about 60 mw/cm at the sample. Samples were exposed in open pans for 5 minutes to the light source at 30° C. then removed from the instrument, sealed and a standard DSC scan run at 10° C./minute to 300° C. A separate DSC experiment was carried out using a sealed sample pan and no prior light exposure to determine the dark reactivity of these PAGs. Comparison of the DSC traces before and after light exposure enables differentiation between the thermal reactivity of the PAGs (in the dark) and their photochemical activity.
(§2) This example describes photo-DSC/DSC experiments designed to quantitatively compare the relative cationic curing reactivities of PAGs of the present invention containing difunctional fluoroorganic sulfonate anions with related PAGs having identical cations and monofunctional perfluoroalkanesulfonate anions. Relative reactivities were measured in three different cationically polymerizable monomer systems, including two different types of epoxies and one vinyl ether.
(§3) The photo-DSC experiment provides information on the photo-cure speed at 30° C. as measured by the induction time (onset) and time to reach the peak maximum in the curing exotherm. […] The energy released under the curing exotherm is a measure of the extent of cure; larger values mean more cure has taken place during the light exposure. […] Comparison with the DSC traces recorded with no prior light exposure provides a measure of the increase in activity after photoactivation of the PAG.
(§4) General: Stock solutions of three cationically curable monomers were prepared as shown in Table 3 with 0.1% (w/w) isopropylthioxanthone (ITX). Epon 828 is a difunctional glycidyl ether epoxy from Shell, ERL-4221 is a difunctional cycloaliphatic epoxy from Union Carbide and VEX 5015 is a trifunctional vinyl ether from Allied Signal. Because of the low sensitivity of these compositions to room lights, all sample preparation was done with the lab lights on but the hood lights off. All PAGs were formulated at 1.0% by weight in the stock monomer/sensitizer solutions. Into a small aluminum pan was weighed 0.02 g of PAG and 0.04 g of propylene carbonate used to promote dissolution of the PAG in the monomer. The pan was heated briefly on a hot plate set at 100° C. to dissolve the PAG, then 2.0 g the stock monomer/sensitizer solution was added. The solution was briefly heated again on a hot plate set at 100° C. to allow complete mixing of the components, then the solution was allowed to cool to room temperature before using.

[3] = Photo-DSC/DSC cationic curing activity of PAGs in ERL-4221; design: PDSC Peak Max / PDSC Induction Time: unit not given here
Method: as §1, §2, §3, §4

[4] = Photo-DSC/DSC cationic curing activity of PAGs in VEX 5015; design: PDSC Peak Max / PDSC Induction Time: unit not given here
Method: as §1, §2, §3, §4

[5] = Thermal gravimetric analysis (TGA), onset of thermal decomposition; assay type: physicochemical; settings: under nitrogen, ramp 10° C. per minute
Method: TGA was performed on a Perkin-Elmer Instruments TGA Model 7 in an open platinum pan. The onset of thermal decomposition, Td, was taken as the thermal decomposition temperature of the photoacid generators and was determined under nitrogen atmosphere using a temperature ramp of 10° C. per minute. The onset temperature was determined by the intersection of tangents to the low temperature portion of the baseline and the first inflection point in the wt % vs. temperature curve.

[6] = Bio-elimination screening after a single oral dose; assay type: in vivo, male Sprague Dawley rats; settings: for Total F concentration in Liver / Total F concentration in Serum: 30 mg/kg single oral dose; for parent compound recovered in the urine: within the first 28 hours post dose, 19F NMR; for bioelimination compared to PFOS: screenings in rats
Method: The objective of this study was to evaluate the potential for oral absorption, distribution, and serum and liver elimination rates of KO3SCF2CF2CF2CF2SO3K and LiO3SCF2CF2CF2COOLi in male Sprague Dawley rats after a single oral dose. Quantitation of fluorinated salt levels and potential metabolites in serum and liver were performed by total organic fluorine analysis.
21 male Sprague Dawley rats (Harlan), 6–8 weeks in age and weighing approximately 150–250 g were treated with a single dose of the test compound, prepared in propylene glycol (suspension of 6 mg/ml propylene glycol), via oral gavage at either 0 mg/kg (control) or 30 mg/kg body weight (Group 1) (3 animals per dose group per designated treatment period). […] Liver and serum samples were collected for total fluorine analysis on each of those days. All the specimens collected at necropsy were temporarily stored in at −70° C. A complete protocol for this study is available (Strategic Toxicology Lab Protocol Number ST-88). Urine samples were collected and analyzed by ^19F NMR on day one and day four (0–4, 4–24 and 76–100 hrs, respectively) post dose in order to determine the concentration of the respective perfluorinated anion.

[7] = Epon 828, DSC scan after light exposure
[8] = Epon 828, no prior light exposure
[9] = ERL-4221, DSC scan after light exposure
[10] = ERL-4221, no prior light exposure

With `O=S(=O)(O)C(F)(F)C(F)(F)C(F)(F)C(F)(F)S(=O)(=O)O` [HO3S(CF2)4SO3H] the “volatility: outcome of vacuum distillation” value ([1]; from 100% H2SO4, down to 1.75 Torr, pot temperature up to 196° C.) was “did not distill”.
In the case of `CC(C)(C)c1ccc([I+]c2ccc(C(C)(C)C)cc2)cc1.CC(C)(C)c1ccc([I+]c2ccc(C(C)(C)C)cc2)cc1.O=S(=O)([O-])C(F)(F)C(F)(F)C(F)(F)S(=O)(=O)[O-]` [PAG1, [(p-(CH3)3C—C6H4)2I^+]2-O3S(CF2)3SO3—], the “PDSC Energy” value ([2]; Epon 828, 1.0% PAG, 0.1% ITX, light exposure 5 min at 30° C.) is reported as 8 J/g, the “DSC after PDSC Onset Temp” value ([2]; Epon 828, DSC scan 10° C./minute after light exposure) is reported as 100 C.° and the “DSC after PDSC Energy” value [2, 7] is reported as 553 J/g. The DSC after PDSC Peak Max [2, 7] was 192 °C, the “PDSC Induction Time” value ([2]; Epon 828, light exposure at 30° C.) was 16.2 and the “DSC Only (dark) Energy” value [2, 8] was 576 J/g. For the same compound, the “DSC Only (dark) Onset Temp” value [2, 8] was 180 C.°, the DSC Only (dark) Peak Max [2, 8] was 230 °C and the “PDSC Peak Max” value ([2]; Epon 828, time to peak maximum of curing exotherm at 30° C.) was 27. The “PDSC Energy” value ([3]; ERL-4221, 1.0% PAG, 0.1% ITX, light exposure 5 min at 30° C.) was 7 J/g, the “DSC after PDSC Onset Temp” value ([3]; ERL-4221, DSC scan 10° C./minute after light exposure) was 60 C.° and the “DSC after PDSC Energy” value [3, 9] was 582 J/g. For the same compound, the DSC after PDSC Peak Max [3, 9] was 148 °C, the “PDSC Induction Time” value ([3]; ERL-4221, light exposure at 30° C.) was 15.1 and the “DSC Only (dark) Energy” value [3, 10] was 565 J/g. For the same compound, the “DSC Only (dark) Onset Temp” value [3, 10] was 150 C.°, the “DSC Only (dark) Peak Max” value [3, 10] was 203 and the “PDSC Peak Max” value ([3]; ERL-4221, time to peak maximum of curing exotherm at 30° C.) was 24. The “PDSC Energy” value ([4]; VEX 5015, 1.0% PAG, 0.1% ITX, light exposure 5 min at 30° C.) was 209 J/g, the “DSC after PDSC Energy” value ([4]; VEX 5015, DSC scan after light exposure) was 54 J/g and the “PDSC Induction Time” value ([4]; VEX 5015, light exposure at 30° C.) was 1.6. The “DSC Only (dark) Onset Temp” value ([4]; VEX 5015, no prior light exposure, two values = two exotherms) was 100, C.° and 160 C.°, the “PDSC Peak Max” value ([4]; VEX 5015, time to peak maximum of curing exotherm at 30° C.) was 4.2 and the “onset of thermal decomposition (TGA)” value [5] was 224 °C.
For `O=S(=O)([O-])C(F)(F)C(F)(F)C(F)(F)C(F)(F)S(=O)(=O)[O-].[K+].[K+]` [KO3SCF2CF2CF2CF2SO3K, KO3S(CF2)4SO3K], the “Total F concentration in Liver” value ([6]; rat, Day 0) was “ND (ND = not detectable within limits of test (0.3 ppm))”, the “Total F concentration in Serum” value ([6]; rat, Day 0) was “(ND) (ND = not detectable within limits of test (0.3 ppm))” and the “Total F concentration in Liver” value ([6]; rat, Day 1) was 0.6 ppm. For the same compound, the “Total F concentration in Serum” value ([6]; rat, Day 1) was “(ND) (ND = not detectable within limits of test (0.3 ppm))”, the “Total F concentration in Liver” value ([6]; rat, Day 4) was “ND (ND = not detectable within limits of test (0.3 ppm))” and the “Total F concentration in Serum” value ([6]; rat, Day 4) was “(ND) (ND = not detectable within limits of test (0.3 ppm))”. For the same compound, the “Total F concentration in Liver” value ([6]; rat, Day 8) was “ND (ND = not detectable within limits of test (0.3 ppm))”, the “Total F concentration in Serum” value ([6]; rat, Day 8) was “(ND) (ND = not detectable within limits of test (0.3 ppm))” and the “Total F concentration in Liver” value ([6]; rat, Day 14) was “ND (ND = not detectable within limits of test (0.3 ppm))”. The “Total F concentration in Serum” value ([6]; rat, Day 14) was “(ND) (ND = not detectable within limits of test (0.3 ppm))”, the “parent compound recovered in the urine” value ([6]; rat, single oral dose) was 11% and the “bioelimination compared to PFOS” value [6] was “more readily bioeliminate compared to PFOS”.
In the case of `O=S(=O)([O-])C(F)(F)C(F)(F)N(C(F)(F)F)C(F)(F)C(F)(F)S(=O)(=O)[O-].c1ccc([S+](c2ccccc2)c2ccccc2)cc1.c1ccc([S+](c2ccccc2)c2ccccc2)cc1` [PAG-3, [(C6H5)3S^+]2CF3N(CF2CF2SO3^−)2], the “onset of thermal decomposition (TGA)” value [5] is reported as 411 °C.
In the case of `O=S(=O)(O)C(F)(F)C(F)(F)C(F)(F)C(F)(F)C(F)(F)C(F)(F)C(F)(F)C(F)(F)F` [C8F17SO3H], the “head temperature of distillation” value ([1]; 8.00 Torr, from 100% H2SO4) is reported as 135–142 °C and the “pot temperature of distillation” value ([1]; 8.00 Torr, from 100% H2SO4) is reported as 148–157 °C.
With `O=C(O)C(F)(F)C(F)(F)C(F)(F)S(=O)(=O)O` [LiO3SCF2CF2CF2CO2Li, LiO3S(CF2)3CO2Li] the “Total F concentration in Liver” value ([6]; rat, Day 0) was 0.5 ppm, the “Total F concentration in Serum” value ([6]; rat, Day 0) was “(ND) (ND = not detectable within limits of test (0.3 ppm))” and the “Total F concentration in Liver” value ([6]; rat, Day 1) was “ND (ND = not detectable within limits of test (0.3 ppm))”. For the same compound, the “Total F concentration in Serum” value ([6]; rat, Day 1) was “(ND) (ND = not detectable within limits of test (0.3 ppm))”, the “Total F concentration in Liver” value ([6]; rat, Day 4) was “ND (ND = not detectable within limits of test (0.3 ppm))” and the “Total F concentration in Serum” value ([6]; rat, Day 4) was “(ND) (ND = not detectable within limits of test (0.3 ppm))”. For the same compound, the “Total F concentration in Liver” value ([6]; rat, Day 8) was “ND (ND = not detectable within limits of test (0.3 ppm))”, the “Total F concentration in Serum” value ([6]; rat, Day 8) was “(ND) (ND = not detectable within limits of test (0.3 ppm))” and the “Total F concentration in Liver” value ([6]; rat, Day 14) was “ND (ND = not detectable within limits of test (0.3 ppm))”. For the same compound, the “Total F concentration in Serum” value ([6]; rat, Day 14) was “(ND) (ND = not detectable within limits of test (0.3 ppm))”, the “estimated half life of elimination via the urinary route” value ([6]; rat, single oral dose) was “less than 28 hours” and the “parent compound recovered in the urine” value ([6]; rat, single oral dose) was “greater than 96%”. The “bioelimination compared to PFOS” value [6] was “more readily bioeliminate compared to PFOS”.
